# Results taken from ChEMBL document CHEMBL4507326, “Data for DCP probe TP-030-2” (2021).
# Activity calls are given as the source filed them. The calls are words filed in the database; no cut-off is given here.
# What was measured:
# [1] = target: 5-hydroxytryptamine receptor 2A (Homo sapiens, UniProt P28223); experiment: GPCRScan assay: inhibition of 5-HT2A; parameters: radioligand conc. used [nm] 1.2 – 2.4, parental cells HEKT
# [2] = target: Substance-P receptor (Homo sapiens) (UniProt P25103); experiment: Inhibition of Tachykinin NK1 at 10 µM in the Eurofins-Panlabs radioligand binding assay (Eurofins_assay_255520); parameters: ligand concentration 0.8 nM; conditions: Compound concentration 10.0 uM
# Substance-P receptor (Homo sapiens), sequence (P25103 whole entry): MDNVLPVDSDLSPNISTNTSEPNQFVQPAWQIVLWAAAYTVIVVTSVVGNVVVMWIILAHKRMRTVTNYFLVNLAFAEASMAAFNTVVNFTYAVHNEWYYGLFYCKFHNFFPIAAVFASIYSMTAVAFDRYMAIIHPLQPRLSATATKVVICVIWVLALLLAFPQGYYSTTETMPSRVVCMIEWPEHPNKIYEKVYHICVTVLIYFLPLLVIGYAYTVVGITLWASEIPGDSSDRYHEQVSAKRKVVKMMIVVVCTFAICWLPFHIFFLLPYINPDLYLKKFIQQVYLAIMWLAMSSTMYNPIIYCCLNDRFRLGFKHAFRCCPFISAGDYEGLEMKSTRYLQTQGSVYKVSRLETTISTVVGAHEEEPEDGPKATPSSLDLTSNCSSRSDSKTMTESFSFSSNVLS
# [3] = target: D(1B) dopamine receptor (Homo sapiens) (UniProt P21918); experiment: Dopamine D5 Eurofins-Panlabs radioligand binding assay; conditions: Compound concentration 10.0 uM
# D(1B) dopamine receptor (Homo sapiens), sequence (P21918 whole entry): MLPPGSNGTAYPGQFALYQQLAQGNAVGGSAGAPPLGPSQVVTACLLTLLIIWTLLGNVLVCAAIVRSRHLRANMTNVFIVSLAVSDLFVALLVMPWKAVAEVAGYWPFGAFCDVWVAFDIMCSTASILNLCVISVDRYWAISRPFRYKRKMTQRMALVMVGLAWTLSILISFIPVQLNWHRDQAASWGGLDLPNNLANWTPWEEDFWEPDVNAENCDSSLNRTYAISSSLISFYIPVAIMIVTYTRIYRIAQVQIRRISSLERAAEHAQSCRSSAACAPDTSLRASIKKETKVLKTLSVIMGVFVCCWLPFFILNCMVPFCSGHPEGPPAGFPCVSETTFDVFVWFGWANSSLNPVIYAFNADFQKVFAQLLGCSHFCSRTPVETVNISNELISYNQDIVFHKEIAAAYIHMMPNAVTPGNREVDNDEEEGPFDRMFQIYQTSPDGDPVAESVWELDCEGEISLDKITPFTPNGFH
# [4] = test system: HT-29; experiment: HT29 necroptosis assay; type: functional, cell-based; conditions: Homo sapiens
# [5] = target: Tyrosine-protein kinase ABL1 (Homo sapiens, UniProt P00519); experiment: Abl(ABL1IHY1) Takeda global kinase panel
# [6] = target: Aurora kinase B (Homo sapiens, UniProt Q96GD4); experiment: AurB [Aur1(AURBPGE1)] Takeda global kinase panel
# Aurora kinase B, sequence (Q96GD4 whole entry): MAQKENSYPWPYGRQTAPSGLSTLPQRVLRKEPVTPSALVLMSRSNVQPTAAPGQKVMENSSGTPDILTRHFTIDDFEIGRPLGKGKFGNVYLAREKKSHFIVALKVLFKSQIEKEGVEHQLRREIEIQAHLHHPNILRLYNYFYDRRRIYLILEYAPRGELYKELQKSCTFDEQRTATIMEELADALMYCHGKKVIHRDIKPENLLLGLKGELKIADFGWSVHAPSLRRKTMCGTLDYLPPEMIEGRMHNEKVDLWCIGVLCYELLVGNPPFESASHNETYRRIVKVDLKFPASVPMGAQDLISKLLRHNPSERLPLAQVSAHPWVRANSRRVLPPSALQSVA
# [7] = target: Bone morphogenetic protein receptor type-2 (Homo sapiens, UniProt Q13873); experiment: BMPR2(BMR2LGN1) Takeda global kinase panel
# [8] = target: Cytoplasmic tyrosine-protein kinase BMX (Homo sapiens, UniProt P51813); experiment: Etk [BMX(BMX1CGF1)] Takeda global kinase panel
# [9] = target: Serine/threonine-protein kinase BRSK1 (Homo sapiens, UniProt Q8TDC3); experiment: BRSK1(BRS1LGA1) Takeda global kinase panel
# Serine/threonine-protein kinase BRSK1, sequence (Q8TDC3 whole entry): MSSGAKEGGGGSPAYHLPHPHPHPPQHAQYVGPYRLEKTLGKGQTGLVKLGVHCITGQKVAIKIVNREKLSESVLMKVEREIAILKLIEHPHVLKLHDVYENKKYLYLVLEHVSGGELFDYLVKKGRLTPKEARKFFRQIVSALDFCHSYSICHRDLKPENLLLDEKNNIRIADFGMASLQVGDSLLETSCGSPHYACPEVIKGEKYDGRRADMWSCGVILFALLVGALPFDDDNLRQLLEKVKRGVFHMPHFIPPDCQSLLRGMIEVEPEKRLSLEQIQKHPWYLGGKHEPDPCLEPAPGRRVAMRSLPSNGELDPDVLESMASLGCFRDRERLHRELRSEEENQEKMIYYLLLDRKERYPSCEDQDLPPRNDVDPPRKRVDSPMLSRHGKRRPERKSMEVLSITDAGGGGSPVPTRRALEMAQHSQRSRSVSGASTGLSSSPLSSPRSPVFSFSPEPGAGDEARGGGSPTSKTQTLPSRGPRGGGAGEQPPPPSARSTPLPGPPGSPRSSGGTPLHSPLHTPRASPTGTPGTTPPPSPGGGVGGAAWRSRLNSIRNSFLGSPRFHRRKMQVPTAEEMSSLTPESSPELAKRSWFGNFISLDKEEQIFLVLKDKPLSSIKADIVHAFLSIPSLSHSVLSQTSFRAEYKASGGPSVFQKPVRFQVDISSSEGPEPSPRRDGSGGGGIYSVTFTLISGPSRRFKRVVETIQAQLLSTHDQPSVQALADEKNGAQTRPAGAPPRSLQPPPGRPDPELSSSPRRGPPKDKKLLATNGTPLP
# [10] = target: Peripheral plasma membrane protein CASK (Homo sapiens, UniProt O14936); experiment: CASK(CASKLGY1) Takeda global kinase panel
# [11] = target: Cyclin-dependent kinase 3 (Homo sapiens, UniProt Q00526); experiment: CDK3(CDK3CGS1) Takeda global kinase panel
# [12] = target: Dual specificity protein kinase CLK2 (Homo sapiens, UniProt P49760); experiment: CLK2(CLK2LGF1) Takeda global kinase panel
# [13] = target: Dual specificity protein kinase CLK4 (Homo sapiens, UniProt Q9HAZ1); experiment: CLK4(CLK4IGF1) Takeda global kinase panel
# [14] = target: Eukaryotic translation initiation factor 2-alpha kinase 1 (Homo sapiens, UniProt Q9BQI3); experiment: HRI(EIK1CGQ1) Takeda global kinase panel
# [15] = target: Tyrosine-protein kinase Fer (Homo sapiens, UniProt P16591); experiment: Fer(FER1LGY1) Takeda global kinase panel
# [16] = target: Cyclin-G-associated kinase (Homo sapiens, UniProt O14976); experiment: GAK(GAK1PGF1) Takeda global kinase panel
# [17] = target: Mitogen-activated protein kinase kinase kinase 9 (Homo sapiens, UniProt P80192); experiment: MLK1(M3K9LGF1) Takeda global kinase panel
# [18] = target: Mitogen-activated protein kinase 11 (Homo sapiens, UniProt Q15759); experiment: p38beta(MP11LGI1) Takeda global kinase panel
# [19] = target: Mitogen-activated protein kinase 14 (Homo sapiens, UniProt Q16539); experiment: p38alpha(MP14LGI1) Takeda global kinase panel
# [20] = target: Myosin-IIIb (Homo sapiens, UniProt Q8WXR4); experiment: MYO3B(MY3BLGA1) Takeda global kinase panel
# [21] = target: Serine/threonine-protein kinase Nek2 (Homo sapiens, UniProt P51955); experiment: Nek2(NEK2LHFA) Takeda global kinase panel
# Serine/threonine-protein kinase Nek2, sequence (P51955 whole entry): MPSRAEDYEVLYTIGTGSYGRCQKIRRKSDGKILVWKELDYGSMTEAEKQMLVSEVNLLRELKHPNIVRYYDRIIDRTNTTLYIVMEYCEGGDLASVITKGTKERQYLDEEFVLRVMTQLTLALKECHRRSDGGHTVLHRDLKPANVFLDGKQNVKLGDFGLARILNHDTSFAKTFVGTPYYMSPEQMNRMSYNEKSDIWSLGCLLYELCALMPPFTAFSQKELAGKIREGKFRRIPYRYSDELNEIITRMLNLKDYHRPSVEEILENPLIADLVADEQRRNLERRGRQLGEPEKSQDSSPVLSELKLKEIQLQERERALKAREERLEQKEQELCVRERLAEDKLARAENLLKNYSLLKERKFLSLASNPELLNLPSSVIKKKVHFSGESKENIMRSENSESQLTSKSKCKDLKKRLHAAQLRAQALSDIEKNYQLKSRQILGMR
# [22] = target: Serine/threonine-protein kinase Nek5 (Homo sapiens, UniProt Q6P3R8); experiment: Nek5(NEK5LGRD) Takeda global kinase panel
# [23] = target: NUAK family SNF1-like kinase 1 (Homo sapiens, UniProt O60285); experiment: NuaK1(NUA1LGF5) Takeda global kinase panel
# [24] = target: Protein kinase C iota type (Homo sapiens, UniProt P41743); experiment: PKCiota(PRKILGRD) Takeda global kinase panel
# [25] = target: Protein kinase C theta type (Homo sapiens, UniProt Q04759); experiment: PKCtheta(PRKQLGM5) Takeda global kinase panel
# [26] = target: Protein-tyrosine kinase 2-beta (Homo sapiens, UniProt Q14289); experiment: PYK2(PT2BLHF1) Takeda global kinase panel
# [27] = target: Receptor-interacting serine/threonine-protein kinase 1 (Homo sapiens, UniProt Q13546); experiment: RIPK1(RIP1PGN1) Takeda global kinase panel
# Receptor-interacting serine/threonine-protein kinase 1, sequence (Q13546 whole entry): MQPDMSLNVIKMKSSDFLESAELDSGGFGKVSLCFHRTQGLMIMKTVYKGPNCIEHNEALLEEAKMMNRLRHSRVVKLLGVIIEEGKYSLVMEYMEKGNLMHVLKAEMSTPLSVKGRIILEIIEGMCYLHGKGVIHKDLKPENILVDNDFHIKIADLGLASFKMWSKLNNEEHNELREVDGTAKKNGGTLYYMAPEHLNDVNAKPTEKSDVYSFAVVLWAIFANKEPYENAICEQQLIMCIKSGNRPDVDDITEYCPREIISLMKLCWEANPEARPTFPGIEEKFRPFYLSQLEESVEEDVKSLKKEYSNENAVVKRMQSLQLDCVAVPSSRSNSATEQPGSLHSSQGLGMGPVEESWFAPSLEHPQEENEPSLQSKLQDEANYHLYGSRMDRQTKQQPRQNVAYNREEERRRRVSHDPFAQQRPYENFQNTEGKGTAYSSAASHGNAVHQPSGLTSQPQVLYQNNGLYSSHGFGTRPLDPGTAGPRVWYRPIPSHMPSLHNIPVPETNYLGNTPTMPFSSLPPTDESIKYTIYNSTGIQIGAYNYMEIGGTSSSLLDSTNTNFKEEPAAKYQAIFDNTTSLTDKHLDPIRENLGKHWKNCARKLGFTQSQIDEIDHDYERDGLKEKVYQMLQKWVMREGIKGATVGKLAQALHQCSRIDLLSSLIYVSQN
# [28] = target: STE20-like serine/threonine-protein kinase (Homo sapiens, UniProt Q9H2G2); experiment: SLK(SLK1LGRJ) Takeda global kinase panel
# [29] = target: SRSF protein kinase 3 (Homo sapiens, UniProt Q9UPE1); experiment: MSSK1(SRP3MHRL) Takeda global kinase panel
# [30] = target: Serine/threonine-protein kinase 3 (Homo sapiens, UniProt Q13188); experiment: MST2(STK3LGF1) Takeda global kinase panel
# Serine/threonine-protein kinase 3, sequence (Q13188 whole entry): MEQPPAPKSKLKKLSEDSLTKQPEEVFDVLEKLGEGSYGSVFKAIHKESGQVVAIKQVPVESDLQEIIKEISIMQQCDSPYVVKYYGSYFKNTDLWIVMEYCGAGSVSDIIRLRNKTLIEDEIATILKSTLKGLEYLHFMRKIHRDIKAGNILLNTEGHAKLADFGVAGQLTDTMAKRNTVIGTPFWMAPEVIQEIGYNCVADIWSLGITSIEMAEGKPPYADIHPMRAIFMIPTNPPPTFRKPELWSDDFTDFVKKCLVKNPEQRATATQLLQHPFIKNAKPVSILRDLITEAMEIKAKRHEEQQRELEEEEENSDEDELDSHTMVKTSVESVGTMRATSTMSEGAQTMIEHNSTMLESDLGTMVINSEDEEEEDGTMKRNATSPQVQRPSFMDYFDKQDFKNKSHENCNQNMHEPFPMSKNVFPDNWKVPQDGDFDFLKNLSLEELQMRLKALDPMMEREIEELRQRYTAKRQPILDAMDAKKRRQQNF
# [31] = target: STE20-related kinase adapter protein alpha (Homo sapiens, UniProt Q7RTN6); experiment: STLK5(STRAPHD1) Takeda global kinase panel
# [32] = target: Tyrosine-protein kinase SYK (Homo sapiens, UniProt P43405); experiment: Syk(SYK1LHY1) Takeda global kinase panel
# [33] = target: Dual specificity testis-specific protein kinase 2 (Homo sapiens, UniProt Q96S53); experiment: TESK2(TES2LGRL) Takeda global kinase panel
# [34] = target: Serine/threonine-protein kinase ULK3 (Homo sapiens, UniProt Q6PHR2); experiment: ULK3(ULK3LGF1) Takeda global kinase panel
# [35] = target: Mitogen-activated protein kinase kinase kinase 20 (Homo sapiens, UniProt Q9NYL2); experiment: ZAK(ZAK1LGY1) Takeda global kinase panel
# [36] = target: Delta-type opioid receptor (Homo sapiens) (UniProt P41143); conditions: Compound concentration 10.0 uM
# [37] = target: GABA-A receptor; anion channel (Rattus norvegicus) (UniProt O09028+P15431+P18506+P18508+P19969+P20236+P23574+P23576+P28471+P28473+P30191+P62813+P63079+P63138+Q91ZM7+Q9ES14); conditions: Compound concentration 10.0 uM
# [38] = target: Alpha-1B adrenergic receptor (Homo sapiens) (UniProt P35368); conditions: Compound concentration 10.0 uM
# Alpha-1B adrenergic receptor (Homo sapiens), sequence (P35368 whole entry): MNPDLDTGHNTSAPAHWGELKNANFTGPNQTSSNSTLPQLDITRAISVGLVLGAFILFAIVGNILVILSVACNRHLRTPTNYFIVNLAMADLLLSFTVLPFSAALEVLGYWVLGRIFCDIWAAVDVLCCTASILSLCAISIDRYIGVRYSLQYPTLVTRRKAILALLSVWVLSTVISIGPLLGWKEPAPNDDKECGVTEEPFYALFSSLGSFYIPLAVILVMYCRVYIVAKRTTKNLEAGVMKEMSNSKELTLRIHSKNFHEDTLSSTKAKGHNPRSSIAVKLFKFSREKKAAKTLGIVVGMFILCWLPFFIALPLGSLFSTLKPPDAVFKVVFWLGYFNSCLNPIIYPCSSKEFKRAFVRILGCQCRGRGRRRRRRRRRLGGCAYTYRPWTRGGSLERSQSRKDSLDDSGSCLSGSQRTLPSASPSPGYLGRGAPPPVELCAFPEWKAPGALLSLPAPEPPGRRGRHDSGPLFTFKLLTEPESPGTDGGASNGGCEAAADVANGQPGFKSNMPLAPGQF
# [39] = target: Muscarinic acetylcholine receptor M3 (Homo sapiens) (UniProt P20309); conditions: Compound concentration 10.0 uM
# [40] = target: Muscarinic acetylcholine receptor M5 (Homo sapiens) (UniProt P08912); conditions: Compound concentration 10.0 uM
# [41] = target: Alpha-1D adrenergic receptor (Homo sapiens) (UniProt P25100); conditions: Compound concentration 10.0 uM
# [42] = target: Endothelin-1 receptor (Homo sapiens) (UniProt P25101); conditions: Compound concentration 10.0 uM
# [43] = target: 5-hydroxytryptamine receptor 1A (Homo sapiens) (UniProt P08908); conditions: Compound concentration 10.0 uM
# [44] = target: Sodium-dependent dopamine transporter (Homo sapiens) (UniProt Q01959); conditions: Compound concentration 10.0 uM
# [45] = target: B1 bradykinin receptor (Homo sapiens) (UniProt P46663); conditions: Compound concentration 10.0 uM
# B1 bradykinin receptor (Homo sapiens), sequence (P46663 whole entry): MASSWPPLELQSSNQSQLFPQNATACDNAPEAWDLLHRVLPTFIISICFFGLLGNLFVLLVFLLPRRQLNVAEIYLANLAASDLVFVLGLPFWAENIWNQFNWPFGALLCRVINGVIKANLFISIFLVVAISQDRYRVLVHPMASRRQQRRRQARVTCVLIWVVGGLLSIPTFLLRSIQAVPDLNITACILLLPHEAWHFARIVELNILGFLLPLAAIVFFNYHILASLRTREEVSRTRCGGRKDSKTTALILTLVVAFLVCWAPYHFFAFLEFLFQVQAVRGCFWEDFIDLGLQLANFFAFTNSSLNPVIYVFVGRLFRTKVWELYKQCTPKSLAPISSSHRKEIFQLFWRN
# 5-hydroxytryptamine receptor 2A, sequence (P28223 whole entry): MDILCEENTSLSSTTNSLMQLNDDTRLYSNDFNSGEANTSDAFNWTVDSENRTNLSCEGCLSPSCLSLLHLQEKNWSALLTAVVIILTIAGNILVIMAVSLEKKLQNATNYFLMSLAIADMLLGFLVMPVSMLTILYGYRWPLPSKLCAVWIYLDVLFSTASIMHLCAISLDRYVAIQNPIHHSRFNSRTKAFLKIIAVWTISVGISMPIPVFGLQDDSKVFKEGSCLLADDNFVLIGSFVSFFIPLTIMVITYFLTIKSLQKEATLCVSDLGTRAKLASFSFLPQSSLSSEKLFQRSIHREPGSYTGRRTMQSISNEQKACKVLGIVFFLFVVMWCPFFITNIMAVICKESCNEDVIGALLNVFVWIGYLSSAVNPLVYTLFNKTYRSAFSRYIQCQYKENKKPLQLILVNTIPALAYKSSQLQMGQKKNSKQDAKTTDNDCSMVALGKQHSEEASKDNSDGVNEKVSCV
smiles,measurement,setting,value
CN1C(=O)[C@@H](N2CCc3c(nn(Cc4ccccc4)c3Br)C2=O)COc2ccccc21 [TP-030-2],Ki,[1]; read-out: Ki,2070 nM
same,Ki,[1]; read-out: pKi (converted),2040 nM
same,inhibition,[2],17%
same,inhibition,[3],2%
same,IC50,[4],1.3 nM (active)
same,IC50,[5],1000 nM
same,IC50,[6],1000 nM
same,IC50,[7],1000 nM
same,IC50,[8],1000 nM
same,IC50,[9],1000 nM
same,IC50,[10],1000 nM
same,IC50,[11],1000 nM
same,IC50,[12],1000 nM
same,IC50,[13],1000 nM
same,IC50,[14],1000 nM
same,IC50,[15],1000 nM
same,IC50,[16],1000 nM
same,IC50,[17],1000 nM
same,IC50,[18],1000 nM
same,IC50,[19],1000 nM
same,IC50,[20],1000 nM
same,IC50,[21],1000 nM
same,IC50,[22],1000 nM
same,IC50,[23],1000 nM
same,IC50,[24],1000 nM
same,IC50,[25],1000 nM
same,IC50,[26],1000 nM
same,IC50,[27],10 nM
same,IC50,[28],1000 nM
same,IC50,[29],1000 nM
same,IC50,[30],1000 nM
same,IC50,[31],1000 nM
same,IC50,[32],1000 nM
same,IC50,[33],1000 nM
same,IC50,[34],1000 nM
same,IC50,[35],1000 nM
same,inhibition,[36],30.1%
same,inhibition,[37],8.81%
same,inhibition,[38],-0.19%
same,inhibition,[39],1.23%
same,inhibition,[40],9.18%
same,inhibition,[41],5.52%
same,inhibition,[42],-3%
same,inhibition,[43],18%
same,inhibition,[44],35%
same,inhibition,[45],1%
